Measurements reported in patent publication US8642801B2 (BHI Limited Partnership, priority 2003, dated 2014).
Structures can show the parent of a compound that is named as a salt.

Experiments:
[1] = target: T1, Aβ1-40 (Homo sapiens, UniProt P05067); test: MS (electrospray mass spectrometry) binding assay for Aβ40
T1 construct: most is normally secreted as a 40 (“Aβ1-40”) or 42 (“Aβ1-42”) amino acid peptide
Description: (§1) The ability of a therapeutic compound of the invention to inhibit an interaction between an amyloidogenic protein and a glycoprotein or proteoglycan constituent of a basement membrane can be assessed by an in vitro binding assay, such as that described in U.S. Pat. No. 5,164,295, the contents of which are hereby incorporated by reference. Alternatively, the ability of a compound to bind to an amyloidogenic protein or to inhibit the binding of a basement membrane constituent (e.g., HSPG) to an amyloidogenic protein (e.g., Aβ) can be measured using a mass spectrometry assay where soluble protein, e.g., Aβ, IAPP, β2M is incubated with the compound. A compound which binds to, e.g., Aβ, will induce a change in the mass spectrum of the protein. Exemplary protocols for a mass spectrometry assay employing Aβ and IAPP can be found in the Examples, the results of which are provided in Table 3. The protocol can readily be modified to adjust the sensitivity of the data, e.g., by adjusting the amount of protein and/or compound employed. Thus, e.g., binding might be detected for test compounds noted as not having detectable binding employing less sensitive test protocols.
(§2) The test compounds were synthesized and screened by mass spectrometry (“MS”) assays, except for selected compounds which were purchased from a commercial source. The MS assay gives data on the ability of compounds to bind to proteins, in this example, to β-amyloid and IAPP.
(§3) The pH value of each sample was adjusted to 7.4 (±0.2) by addition of 0.1% aqueous sodium hydroxide. The solutions were then analyzed by electrospray ionization mass spectrometry using a Waters ZQ 4000 mass spectrometer. Samples were introduced by direct infusion at a flow-rate of 25 μL/min within 2 hr. after sample preparation. The source temperature was kept at 70° C. and the cone voltage was 20 V for all the analysis. Data were processed using Masslynx 3.5 software. The MS assay gives data on the ability of compounds to bind to soluble Aβ, whereas the ThT, EM and CD assays give data on inhibition of fibrillogenesis. In Table 3, a blank box means that a value was not determined for that compound in that assay.

[2] = target: T2, IAPP (Homo sapiens, UniProt P10997); test: MS (electrospray mass spectrometry) binding assay for IAPP
T2 construct: which is a 37 amino acid peptide, derived from a larger precursor peptide, called pro-IAPP
T2 sequence (P10997 34-70 limits assumed): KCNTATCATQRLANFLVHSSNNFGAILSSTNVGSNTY

[3] = target: T2, IAPP; test: as above; conditions: Table 3C; 20 μM Aβ peptide, 100 μM compound (so in the source)
Description: as §1, §2
as §3, with “In the MS assay for Aβ40, samples were prepared as aqueous solutions (adding 20% ethanol if necessary to solubilize in water), 200 μM of a test compound and 20 μM of solubilized Aβ40, or 400 μM of a test compound and 40 μM of solubilized Aβ40. The pH” for “The pH”
The key below describes the codes used in Table 3A to quantify the binding based on the intensity of the absorption.

[4] = Table 3D, 40 μM Aβ peptide, 400 μM compound
[5] = Table 3D, 40 μM Aβ peptide, 400 μM compound (so in the source)
[6] = Table 3C, 20 μM Aβ peptide, 100 μM compound
[7] = Table 3B, 30 μM Aβ peptide, 150 μM compound
[8] = Table 3B, 30 μM Aβ peptide, 150 μM compound (so in the source)

T1 sequence (P05067 672-711 limits assumed): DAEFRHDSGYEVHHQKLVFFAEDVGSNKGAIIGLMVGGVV

## O=S(=O)(O)CCCN1CCC=C(c2ccccc2)C1 [IG]
[1]; [4]
  MS binding Aβ1-40: +++ (75-100% binding=(+++))
[2]; [5]
  MS binding IAPP: ++ (40-74% binding=(++))

## CC(C)(C)OC(=O)NCCCS(=O)(=O)O [IA]
[1]; [4]
  MS binding Aβ1-40: +++ (75-100% binding=(+++))
[2]; [5]
  MS binding IAPP: + (20-39% binding=(+))

## O=S(=O)(O)CCCNCc1ccccc1OC(F)(F)F [IX]
[1]; [6]
  MS binding Aβ1-40: ++ (40-74% binding=(++))
[3]
  MS binding IAPP: +++ (75-100% binding=(+++))

## CCNCCCCS(=O)(=O)O [LE, 4-(ethylamino)-1-butanesulfonic acid]
[3]
  MS binding IAPP: ++ (40-74% binding=(++))

## CC(CCN1CCCCC1)S(=O)(=O)O (stereo not drawn) [JS, 4-piperidin-1-yl-2-butanesulfonic acid]
[3]
  MS binding IAPP: + (20-39% binding=(+))

## Nc1ccc(NCCCS(=O)(=O)O)cc1 [HM]
[1]; [4]
  MS binding Aβ1-40: + (20-39% binding=(+))
[2]; [5]
  MS binding IAPP: − (<20%=(−))

## O=S(=O)(O)CC(O)CN1CCCCC1 (stereo not drawn) [KA, 2-hydroxy-3-piperidin-1-ylpropane-1-sulfonic acid]
[3]
  MS binding IAPP: ++ (40-74% binding=(++))

## O=S(=O)(O)CCCn1ccnc1 [HR]
[1]; [4]
  MS binding Aβ1-40: ++ (40-74% binding=(++))
[2]; [5]
  MS binding IAPP: − (<20%=(−))

## COc1ccc(NCCCS(=O)(=O)O)cc1 [HL]
[1]; [4]
  MS binding Aβ1-40: ++ (40-74% binding=(++))
[2]; [5]
  MS binding IAPP: + (20-39% binding=(+))

## CC(CCNC12CC3CC(CC(C3)C1)C2)S(=O)(=O)O (stereo not drawn) [JH, 4-(adamantyl)amino-2-butanesulfonic acid]
[1]; [7]
  MS binding Aβ1-40: ++ (40-59% binding=(++))
[2]; [8]
  MS binding IAPP: +++ (60-100% binding=(+++))

## COc1ccccc1CNCCCS(=O)(=O)O [IW]
[1]; [6]
  MS binding Aβ1-40: ++ (40-74% binding=(++))
[3]
  MS binding IAPP: +++ (75-100% binding=(+++))

## CCCC(CO)NCCC(C)S(=O)(=O)O (racemic) [JL, 4-[(dl)-1-hydroxy-2-pentyl]amino-2-butane sulfonic acid]
[1]; [6]
  MS binding Aβ1-40: ++ (40-74% binding=(++))
[3]
  MS binding IAPP: ++ (40-74% binding=(++))

## O=S(=O)([O-])CCCC[N+]12CCC(CC1)CC2 [LF]
[3]
  MS binding IAPP: + (20-39% binding=(+))

## O=S(=O)([O-])CC(O)CNCc1ccccc1.[Na+] (stereo not drawn) [JY]
[3]
  MS binding IAPP: +++ (75-100% binding=(+++))

## CCCCCCCCCNCCC(C)S(=O)(=O)[O-].[Na+] (stereo not drawn) [JN, 4-(nonylamino)-2-butanesulfonic acid]
[1]; [6]
  MS binding Aβ1-40: ++ (40-74% binding=(++))
[3]
  MS binding IAPP: + (20-39% binding=(+))

## C[C@H]([C@@H](O)c1ccccc1)N(C)CCCS(=O)(=O)O [IZ]
[1]; [6]
  MS binding Aβ1-40: − (<20%=(−))
[3]
  MS binding IAPP: +++ (75-100% binding=(+++))

## CCNCC(O)CS(=O)(=O)O (stereo not drawn) [JU, 3-(ethylamino)-2-hydroxy-1-propanesulfonic acid]
[3]
  MS binding IAPP: ++ (40-74% binding=(++))

## CCCC(CO)NCC(O)CS(=O)(=O)O (stereo not drawn)
[3]
  MS binding IAPP: ++ (40-74% binding=(++))

## CN(C)CCS(=O)(=O)O [KQ]
[3]
  MS binding IAPP: + (20-39% binding=(+))

## O=S(=O)(O)CCCNC(Cc1ccccc1)c1ccccc1 (stereo not drawn) [JC]
[3]
  MS binding IAPP: + (20-39% binding=(+))

## CC(C)CCNCC(O)CS(=O)(=O)O (stereo not drawn) [KK, 2-hydroxy-3-[(3-methylbutyl)amino]-1-propane sulfonic acid]
[3]
  MS binding IAPP: +++ (75-100% binding=(+++))

## CC(C)(C)NCCCCS(=O)(=O)O [LD, 4-(tert-butylamino)-1-butanesulfonic acid]
[3]
  MS binding IAPP: ++ (40-74% binding=(++))

## O=S(=O)(O)CC(O)CNC1CC2CCC1C2 (stereo not drawn) [KI, 3-(bicyclo[2.2.1]hept-2-ylamino)-2-hydroxy-1-propanesulfonic acid]
[3]
  MS binding IAPP: + (20-39% binding=(+))

## CCCCCCCCNCCCCS(=O)(=O)O [LJ, 4-(octylamino)-1-butanesulfonic acid]
[3]
  MS binding IAPP: +++ (75-100% binding=(+++))

## CC(CCNC1C2CC3CC(C2)CC1C3)S(=O)(=O)O (stereo not drawn) [JI, 4-(2-adamantyl)amino-2-butanesulfonic acid]
[1]; [7]
  MS binding Aβ1-40: +++ (60-100% binding=(+++))
[2]; [8]
  MS binding IAPP: +++ (60-100% binding=(+++))

## O=S(=O)(O)CCCCNC12CC3CC(CC(C3)C1)C2 [LI, 4-(adamantyl)amino-1-butanesulfonic acid]
[3]
  MS binding IAPP: +++ (75-100% binding=(+++))

## O=S(=O)(O)CCCNc1ccccc1O [HU]
[1]; [4]
  MS binding Aβ1-40: +++ (75-100% binding=(+++))
[2]; [5]
  MS binding IAPP: + (20-39% binding=(+))

## O=S(=O)([O-])CC(O)C[N+]12CCC(CC1)CC2 (stereo not drawn) [JX, 1-(3-sulfo-2-hydroxypropyl) quinuclidinium, inner salt]
[3]
  MS binding IAPP: ++ (40-74% binding=(++))

## CC(CCN)S(=O)(=O)O (stereo not drawn) [JR, 4-amino-2-butanesulfonic acid]
[1]; [7]
  MS binding Aβ1-40: ++ (40-59% binding=(++))
[2]; [8]
  MS binding IAPP: +++ (60-100% binding=(+++))

## CCCC(CO)NCCCCS(=O)(=O)O (racemic) [LL, 4-[(dl)-1-hydroxy-2-pentyl]amino-1-butanesulfonic acid]
[3]
  MS binding IAPP: ++ (40-74% binding=(++))

## O=S(=O)(O)CCCn1cccc1 [HV]
[1]; [4]
  MS binding Aβ1-40: ++ (40-74% binding=(++))
[2]; [5]
  MS binding IAPP: + (20-39% binding=(+))

## CCCCCCNC(=O)NCCCS(=O)(=O)[O-].[Na+] [AI]
[1]; [7]
  MS binding Aβ1-40: +++ (60-100% binding=(+++))

## CN(C)CCCCS(=O)(=O)O [LH, 4-Dimethylamino-1-butanesulfonic acid]
[3]
  MS binding IAPP: + (20-39% binding=(+))

## O=S(=O)(O)CCCNC1CN2CCC1CC2 (stereo not drawn) [HQ]
[1]; [4]
  MS binding Aβ1-40: + (20-39% binding=(+))

## C[C@@H](NCCCS(=O)(=O)O)c1ccccc1 [IY]
[1]; [7]
  MS binding Aβ1-40: ++ (40-59% binding=(++))
[2]; [8]
  MS binding IAPP: +++ (60-100% binding=(+++))

## CN(C)CC(O)CS(=O)(=O)[O-].[Na+] (stereo not drawn) [JT, 3-(dimethylamino)-2-hydroxy-1-propane sulfonic acid, sodium salt]
[3]
  MS binding IAPP: + (20-39% binding=(+))

## COc1ccc(CNCCCCS(=O)(=O)O)cc1OC [LM]
[3]
  MS binding IAPP: +++ (75-100% binding=(+++))

## O=S(=O)(O)CCCCNC1CCCc2ccccc21 (stereo not drawn) [LG]
[3]
  MS binding IAPP: ++ (40-74% binding=(++))

## O=S(=O)(O)CCCCCNC1CC2CCC1C2 (stereo not drawn) [LQ]
[3]
  MS binding IAPP: +++ (75-100% binding=(+++))

## O=S(=O)(O)CCCNc1ccc(F)cc1 [HT]
[1]; [4]
  MS binding Aβ1-40: ++ (40-74% binding=(++))
[2]; [5]
  MS binding IAPP: + (20-39% binding=(+))

## CCCCCCCCNCC(O)CS(=O)(=O)O (stereo not drawn) [JW]
[3]
  MS binding IAPP: ++ (40-74% binding=(++))

## O=S(=O)(O)CC(O)CNC1CCCc2ccccc21 (stereo not drawn) [JZ, 2-hydroxy-3-(1,2,3,4-tetrahydronaphthalen-1-ylamino)propane-1-sulfonic acid]
[3]
  MS binding IAPP: +++ (75-100% binding=(+++))

## CCCCCCCCNCCC(C)S(=O)(=O)O (stereo not drawn) [JG, 4-(octylamino)-2-butanesulfonic acid]
[3]
  MS binding IAPP: +++ (75-100% binding=(+++))
